Assay results: patent US20230346735A1, “Nutritional Composition Comprising Carnitine and Method for Treating or Preventing an Infection in a Mammal” (priority 2020, published 2023)
Marks after values point to notes of the source that are not given here.

Experiments:
ACE-1 = ACE-1 mRNA expression in Calu-3, RT real-time PCR; format: cell-based, human; conditions: Calu-3, 50 to 1,000 uM, 24 hr pre-treatment
Furin = experiment: Human study, serum ELISA, Furin; format: in vivo; conditions: 2 g daily, 5 weeks, 48 hours after exercise challenge, versus placebo
Experimental: (§1) A human study was run with a total of 80 healthy male and female subjects ranging from 21 to 65 years of age, who were active (i.e. 30 minutes per day of moderate activity, 3 days per week) are randomized into two groups. […] Seventy-three subjects completed the trial and biomarker data were analyzed from the sera of the 73 completers. Sera were collected for analysis of C-Reactive Protein (CRP), ACE 1, ACE 2, TMPRSS 2, the Tumor Necrosis Factor alpha (TNF-alpha), and Furin at baseline in the beginning of the trial, at week 5 and 48 hr after an exercise challenge as described (Clinicaltrials.gov NCT04420377). The exercise challenge serves as surrogate to the inflammation stimulus.
(§2) To obtain human sera, venous blood was extracted by venipuncture of the antecubital vein using a 21-gauge syringe and collected into a 10 mL EDTA vacutainer tube (BD Vacutainer®, Becton, Dickinson and Company, Franklin Lakes, NJ) by a certified phlebotomist. […] Human ACE-1, ACE-2, TMPRSS2, Furin, CRP and TNF-alpha protein levels were assessed using commercially available ELISA kits, according the manufacturer recommendations, ACE-1 (R&D systems Inc., Minneapolis, MN, USA), ACE-2 (RayBiotech inc., Peachtree Corners, GA), TMPRSS2 (Novus Biologicals, Littleton, CO), CRP (R&D Systems Inc., Minneapolis, MN), TNF-alpha (Novus Biologicals, Littleton, CO), and Furin (Sigma Aldrich, St. Louis, MO). […]

C-Reactive Protein (CRP) = experiment: Human study, serum ELISA, CRP; format: in vivo
Experimental: as §1, §2

superoxide dismutase = experiment: Antioxidant capacity: superoxide dismutase in exercised rats; format: in vivo, rat; conditions: 6 weeks
Experimental: (§3) Fifty-six (56) Male Wistar rats that were 8-week old were obtained. The rats were reared at the temperature of 22 ± 2° C., the humidity of 55 ± 5%, and with a 12-hrs light-12-hrs dark cycle. All procedures involving rats were conducted in strict compliance with the relevant laws, the Animal Welfare Act, Public Health Services Policy, and guidelines established by the Institutional Animal Care and Use Committee of the Institute of the contracted University which completed the study.
(§4) After a week of the adaptation period, the rats were divided into eight equal groups containing seven rats each. The initial body weights of the rats were similar in all the groups (214.53 grams ± 4.67; P > 0.05).
(§5) Groups 1 and 2 were not subjected to an exercise routine. Groups 3-8 were subjected to an exercise regimen consisting of a week training period with an incremental exercise capacity described below. After the week training period the exercise regimen followed was each rat in Groups 3-8 were subjected to 6 weeks of running at 25 m/min during 45 min […]. […] These correspond to 0, 250, 500, 1000, 2000 and 4000 mg per day for humans, respectively.
(§6) The exercised rats were subjected to treadmill exercise on a motorized rodent treadmill (Commat Limited, Ankara, Turkey). The treadmill contained a stimulus grid at the back end of the treadmill giving an electric shock when the animal placed its paw on the grid. […] To eliminate the diurnal variations, all exercise tests were applied during the same time of the day. The week of training period was provided as pre-training practice for the animals to get familiar with the treadmill equipment and handling. In doing so, the rats in the exercise training groups were accustomed by treadmill exercise over 5 days such that: (i) 1st day, 10 m/min for 10 min, (ii) 2nd day, 20 m/min for 10 min, (iii) 3rd day, 25 m/min for 10 min, (iv) 4th day, 25 m/min for 20 min and (v) 5th day, 25 m/min for 30 min. After the training period, the rats in treadmill exercise groups ran on the treadmill 25 m/min for 45 min/ per day and five days per week for 6 weeks according to the protocol described by Sahin et al. Capsaicinoids Improve the Consequences of Physical Activity. Toxicol Rep. 2018;5:598-607, which is hereby incorporated by reference.
(§7) The exercise regimen was used to induce an inflammation and oxidative stress conditions. […] The results of malondialdehyde, superoxide dismutase, catalase, and glutathione peroxidase for each rat group are shown in TABLE 2.

catalase = experiment: Antioxidant capacity: catalase in exercised rats; format: in vivo, rat; conditions: 6 weeks
Experimental: as §3, §4, §5, §6, §7

[1] = Car200: 200 mg/kg oral gavage, no exercise
[2] = Ex+Car25: exercise, 25 mg/kg oral gavage
[3] = Ex+Car50: exercise, 50 mg/kg oral gavage
[4] = Ex+Car100: exercise, 100 mg/kg oral gavage
[5] = Ex+Car200: exercise, 200 mg/kg oral gavage
[6] = Ex+Car400: exercise, 400 mg/kg oral gavage

## C[N+](C)(C)C[C@H](O)CC(=O)[O-] [L-carnitine]
ACE-1
  ACE-1 mRNA levels: didn’t not change
Furin
  Furin serum levels: significant decrease
C-Reactive Protein (CRP); at 48 hr-Post, p<0.005
  plasma CRP concentration, mean diff Group A versus Group B: -0.55 mg/L
C-Reactive Protein (CRP); from baseline after 5 weeks of supplementation, compared to placebo group
  serum CRP levels: significantly lower
Superoxide dismutase; [1]
  SOD: 95.87±2.47^cd U/mg protein
Superoxide dismutase; [2]
  SOD: 96.49±0.78^cd U/mg protein
Superoxide dismutase; [3]
  SOD: 102.89±2.69^bc U/mg protein
Superoxide dismutase; [4]
  SOD: 109.68±2.49^ab U/mg protein
Superoxide dismutase; [5]
  SOD: 114.56±2.70^a U/mg protein
Superoxide dismutase; [6]
  SOD: 120.16±3.58^a U/mg protein
catalase; [1]
  CAT: 147.19±2.01^de U/mg protein
catalase; [2]
  CAT: 144.55±3.21^de U/mg protein
catalase; [3]
  CAT: 152.72±2.50^cd U/mg protein
catalase; [4]
  CAT: 162.11±1.97^bc U/mg protein
catalase; [5]
  CAT: 170.77±2.57^b U/mg protein
catalase; [6]
  CAT: 186.10±2.50^a U/mg protein
